From patent US9938281B2 (Merck Sharp & Dohme Corp., priority 2012, dated 2018) come the findings set out here.

One assay deals with T1, PI3K-alpha (Homo sapiens, UniProt P42336).
T1 construct: purchased Upstate; Millipore 14-602
The experiment in a line: HTRF PI3K biochemical assay, alpha isoform. The following applies: ratio PI3K-alpha IC50 value / PI3K-delta IC50 value. Background: TR-FRET usually uses a lanthanide donor and a delayed reading to cut background.

In another assay the target is T2, PI3K-delta (Homo sapiens, UniProt O00329).
T2 construct: purchased Upstate; Millipore 14-604
T2 sequence (O00329 whole entry): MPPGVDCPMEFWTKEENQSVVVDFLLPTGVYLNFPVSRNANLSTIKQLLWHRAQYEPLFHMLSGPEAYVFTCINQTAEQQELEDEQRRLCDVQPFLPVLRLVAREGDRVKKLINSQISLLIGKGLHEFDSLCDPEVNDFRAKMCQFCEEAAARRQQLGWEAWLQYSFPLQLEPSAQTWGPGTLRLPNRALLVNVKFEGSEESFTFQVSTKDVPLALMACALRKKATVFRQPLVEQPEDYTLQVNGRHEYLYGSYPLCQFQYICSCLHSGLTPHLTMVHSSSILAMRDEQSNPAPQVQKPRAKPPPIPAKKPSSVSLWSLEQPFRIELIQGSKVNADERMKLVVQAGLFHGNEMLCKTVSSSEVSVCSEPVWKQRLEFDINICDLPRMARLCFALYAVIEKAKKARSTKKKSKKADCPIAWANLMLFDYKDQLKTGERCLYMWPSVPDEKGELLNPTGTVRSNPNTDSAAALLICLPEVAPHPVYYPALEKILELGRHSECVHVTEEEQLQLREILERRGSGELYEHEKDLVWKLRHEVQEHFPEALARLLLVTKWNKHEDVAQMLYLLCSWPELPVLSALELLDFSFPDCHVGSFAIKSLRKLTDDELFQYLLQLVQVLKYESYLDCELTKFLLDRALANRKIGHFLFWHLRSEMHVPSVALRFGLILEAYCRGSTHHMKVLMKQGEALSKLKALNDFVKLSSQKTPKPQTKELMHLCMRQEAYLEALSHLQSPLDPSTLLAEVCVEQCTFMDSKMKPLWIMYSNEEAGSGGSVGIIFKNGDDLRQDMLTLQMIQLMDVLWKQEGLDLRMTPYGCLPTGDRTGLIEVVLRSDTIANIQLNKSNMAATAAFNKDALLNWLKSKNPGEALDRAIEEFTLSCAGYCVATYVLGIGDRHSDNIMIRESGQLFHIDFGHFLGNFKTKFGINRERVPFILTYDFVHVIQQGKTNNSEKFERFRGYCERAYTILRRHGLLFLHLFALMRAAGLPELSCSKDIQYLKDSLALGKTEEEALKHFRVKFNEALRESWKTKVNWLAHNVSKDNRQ
T2 sequence (P27986 whole entry partner): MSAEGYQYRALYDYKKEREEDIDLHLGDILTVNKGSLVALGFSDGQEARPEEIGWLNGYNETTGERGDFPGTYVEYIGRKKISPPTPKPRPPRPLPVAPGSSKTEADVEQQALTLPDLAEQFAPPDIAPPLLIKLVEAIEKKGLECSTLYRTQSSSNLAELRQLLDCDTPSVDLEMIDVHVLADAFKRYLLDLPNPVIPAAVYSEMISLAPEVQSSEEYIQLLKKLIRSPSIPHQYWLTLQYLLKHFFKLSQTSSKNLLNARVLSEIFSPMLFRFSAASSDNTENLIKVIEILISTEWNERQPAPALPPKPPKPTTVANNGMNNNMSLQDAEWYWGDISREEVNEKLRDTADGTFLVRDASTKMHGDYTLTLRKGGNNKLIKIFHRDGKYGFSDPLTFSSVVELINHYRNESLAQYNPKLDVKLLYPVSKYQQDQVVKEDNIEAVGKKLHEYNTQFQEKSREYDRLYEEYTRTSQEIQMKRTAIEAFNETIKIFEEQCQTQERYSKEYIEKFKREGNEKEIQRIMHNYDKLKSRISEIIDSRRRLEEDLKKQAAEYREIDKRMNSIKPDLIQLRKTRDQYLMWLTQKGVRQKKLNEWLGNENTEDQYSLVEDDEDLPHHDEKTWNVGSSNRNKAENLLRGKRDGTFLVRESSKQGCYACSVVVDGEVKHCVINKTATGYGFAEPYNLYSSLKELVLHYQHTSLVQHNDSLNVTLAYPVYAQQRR
The assay is described as follows: HTRF PI3K biochemical assay, delta isoform. The following applies: form screened (neutral or TFA salt) given, read-out: PI3Kdelta IC50.

T1 sequence (P42336 whole entry): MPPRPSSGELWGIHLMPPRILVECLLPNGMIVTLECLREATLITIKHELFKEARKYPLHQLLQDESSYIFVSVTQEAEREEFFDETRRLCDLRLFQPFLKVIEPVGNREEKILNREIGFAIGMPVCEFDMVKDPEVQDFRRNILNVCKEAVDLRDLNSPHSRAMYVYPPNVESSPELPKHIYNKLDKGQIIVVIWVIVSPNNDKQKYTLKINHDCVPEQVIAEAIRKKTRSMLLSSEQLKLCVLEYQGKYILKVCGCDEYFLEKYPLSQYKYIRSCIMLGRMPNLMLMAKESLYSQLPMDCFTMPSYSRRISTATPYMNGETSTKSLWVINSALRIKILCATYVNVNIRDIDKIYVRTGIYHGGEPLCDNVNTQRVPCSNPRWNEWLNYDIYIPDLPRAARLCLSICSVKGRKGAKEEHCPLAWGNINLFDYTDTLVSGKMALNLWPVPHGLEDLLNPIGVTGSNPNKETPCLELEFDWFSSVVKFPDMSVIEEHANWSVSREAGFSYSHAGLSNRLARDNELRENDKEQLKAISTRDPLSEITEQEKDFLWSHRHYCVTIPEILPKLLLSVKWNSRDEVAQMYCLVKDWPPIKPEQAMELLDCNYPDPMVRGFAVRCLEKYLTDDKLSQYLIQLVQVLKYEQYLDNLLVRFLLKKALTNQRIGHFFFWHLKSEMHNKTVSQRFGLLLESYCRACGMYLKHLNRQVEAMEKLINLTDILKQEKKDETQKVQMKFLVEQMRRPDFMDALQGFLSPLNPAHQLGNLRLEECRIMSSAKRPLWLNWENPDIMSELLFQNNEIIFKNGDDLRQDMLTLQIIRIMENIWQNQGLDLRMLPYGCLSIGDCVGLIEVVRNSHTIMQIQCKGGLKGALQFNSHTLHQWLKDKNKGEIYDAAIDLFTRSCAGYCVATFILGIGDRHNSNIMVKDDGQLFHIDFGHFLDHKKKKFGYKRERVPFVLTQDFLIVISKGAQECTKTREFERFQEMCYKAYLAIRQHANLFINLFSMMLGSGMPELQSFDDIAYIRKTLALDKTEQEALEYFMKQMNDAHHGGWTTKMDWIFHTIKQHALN
T1 sequence (P27986 whole entry partner): as the sequence (P27986 whole entry partner) above

For the compound `CCn1c(-c2cnc(C)nc2)nc2c(N[C@H]3CCN(C(=O)OCCF)C3)ncnc21` [Compound 13-3, 2-fluoroethyl (3S)-3-{[9-ethyl-8-(2-methylpyrimidin-5-yl)-9H-purin-6-yl]amino}pyrrolidine-1-carboxylate], the “Selectivity versus PI3Kalpha” value at PI3K-alpha is listed as greater than 10. The IC50 on PI3K-delta is 8.7 nM.

For the compound `CCn1c(-c2cnc(C)nc2)nc2c(N[C@H]3CCN(C(=O)OC4CCS(=O)(=O)C4)C3)ncnc21` (mixture of isomers) [Compound 13-6, (S and R)-1,1-dioxidotetrahydrothiophen-3-yl (3S)-3-{[9-ethyl-8-(2-methylpyrimidin-5-yl)-9H-purin-6-yl]amino}pyrrolidine-l-carboxylate], the “Selectivity versus PI3Kalpha” value at PI3K-alpha is given as greater than 10. Moreover, on PI3K-delta, the IC50 stood at 4.6 nM.

`CCn1c(C(F)F)nc2c(N[C@H]3CCN(C(=O)c4ccn(C)n4)C3)ncnc21` [Compound 7-12, 8-(difluoromethyl)-9-ethyl-N-{(3S)-1-[(1-methyl-1H-pyrazol-3-yl)carbonyl]pyrrolidin-3-yl}-9H-purin-6-amine]: at PI3K-alpha, the “Selectivity versus PI3Kalpha” value is recorded as greater than 10. Also, the IC50 on PI3K-delta is 39 nM.

As to `CCn1c(-c2cnc(C)nc2)nc2c(N[C@H]3C[C@H](C(=O)O)N(C(=O)C4CC4)C3)ncnc21` [Compound 15-1, (4S)-1-(cyclopropylcarbonyl)-4-{[9-ethyl-8-(2-methylpyrimidin-5-yl)-9H-purin-6-yl]amino}-D-proline], the “Selectivity versus PI3Kalpha” value on PI3K-alpha is greater than 10. For the same compound, the IC50 at PI3K-delta was 2.5 nM.

As to `CCn1c(C(=O)NCC(F)(F)F)nc2c(N[C@H]3CCN(C(=O)N4CC(OC)C4)C3)ncnc21` [Compound 12-27, 9-ethyl-6-({(3S)-1-[(3-methoxyazetidin-1-yl)carbonyl]pyrrolidin-3-yl}amino)-N-(2,2,2-trifluoroethyl)-9H-purine-8-carboxamide], the “Selectivity versus PI3Kalpha” value at PI3K-alpha is recorded as greater than 10. At PI3K-delta, the IC50 came out at 5.1 nM.

Take `CCn1c(C(=O)NCC(F)(F)F)nc2c(N[C@H]3CCN(C(=O)C4CCC4)C3)ncnc21` [Compound 6-9, 6-{[(3S)-1-(cyclobutylcarbonyl)pyrrolidin-3-yl]amino}-9-ethyl-N-(2,2,2-trifluoroethyl)-9H-purine-8-carboxamide]: the “Selectivity versus PI3Kalpha” value on PI3K-alpha is listed as greater than 10. Further, the IC50 on PI3K-delta was determined as 3.3 nM.

In the case of `CCn1c(-c2cnc(C)nc2)nc2c(N[C@H]3CCN(C(=O)OCc4ccccc4)C3)ncnc21` [Compound 13-10, benzyl (3S)-3-{[9-ethyl-8-(2-methylpyrimidin-5-yl)-9H-purin-6-yl]amino}pyrrolidine-1-carboxylate], on PI3K-alpha, the “Selectivity versus PI3Kalpha” value is greater than 10. In addition, the IC50 at PI3K-delta amounted to 2 nM.

`CCn1c(-n2cnc(C(F)(F)F)c2)nc2c(N[C@H]3CCN(C(=O)C4CC4)C3)ncnc21` [Compound 8-3, N-[(3S)-1-(cyclopropylcarbonyl)pyrrolidin-3-yl]-9-ethyl-8-[4-(trifluoromethyl)-1H-imidazol-1-yl]-9H-purin-6-amine]: the “Selectivity versus PI3Kalpha” value on PI3K-alpha is recorded as greater than 10. The IC50 on PI3K-delta was found to be 11 nM.

Consider `CCn1c(-c2cnc(C)nc2)nc2c(N[C@H]3CCN(C(=O)c4cnn(C)c4)C3)ncnc21` [Compound 2-73, 9-ethyl-N-{(3S)-1-[(1-methyl-1H-pyrazol-4-yl)carbonyl]pyrrolidin-3-yl}-8-(2-methylpyrimidin-5-yl)-9H-purin-6-amine], for which the “Selectivity versus PI3Kalpha” value at PI3K-alpha is greater than 10. For the same compound, the IC50 at PI3K-delta came out at 4.2 nM.

Turning to `CCn1c(-c2cnc(C)nc2)nc2c(N[C@H]3CCN(C(=O)C4CCOCC4)C3)ncnc21` [Compound 2-18, (S)-(3-((9-ethyl-8-(2-methylpyrimidin-5-yl)-9H-purin-6-yl)amino)pyrrolidin-1-yl)(tetrahydro-2H-pyran-4-yl)methanone], on PI3K-alpha, the “Selectivity versus PI3Kalpha” value is greater than 10. Moreover, the IC50 at PI3K-delta was 2.4 nM.

With `CCn1c(-c2cnc(C)nc2)nc2c(N[C@H]3CCN(c4nccc5ccccc45)C3)ncnc21` [Compound 4-9, 9-ethyl-N-[(3S)-1-isoquinolin-1-ylpyrrolidin-3-yl]-8-(2-methylpyrimidin-5-yl)-9H-purin-6-amine], on PI3K-alpha, the “Selectivity versus PI3Kalpha” value is listed as greater than 10. Further, the IC50 on PI3K-delta worked out at 6.6 nM.

Take `Cc1ncc(-c2nc3c(N[C@H]4CCN(C(=O)C5CC5)C4)ncnc3n2CC(F)(F)F)cn1` [Compound 9-5, N-[(3S)-1-(cyclopropylcarbonyl)pyrrolidin-3-yl]-8-(2-methylpyrimidin-5-yl)-9-(2,2,2-trifluoroethyl)-9H-purin-6-amine]: the “Selectivity versus PI3Kalpha” value at PI3K-alpha was greater than 10. In addition, the IC50 on PI3K-delta worked out at 580 nM.

In the case of `CCn1c(COC)nc2c(N[C@H]3CCN(C(=O)C4CC4)C3)ncnc21` [Compound 7-8, N-[(3S)-1-(cyclopropylcarbonyl)pyrrolidin-3-yl]-9-ethyl-8-(methoxymethyl)-9H-purin-6-amine], on PI3K-alpha, the “Selectivity versus PI3Kalpha” value was greater than 10. The IC50 on PI3K-delta is 190 nM.

With `CCn1ncc(-c2nc3c(N[C@H]4CCCN(S(=O)(=O)CC)C4)ncnc3n2C)c1C` [Compound 11-1, 8-(1-ethyl-5-methyl-1H-pyrazol-4-yl)-N-[(3S)-1-(ethylsulfonyl)piperidin-3-yl]-9-methyl-9H-purin-6-amine], on PI3K-alpha, the “Selectivity versus PI3Kalpha” value is greater than 10. Moreover, at PI3K-delta, the IC50 stood at 7.4 nM.

Take `CCn1c(-c2cnc(C)nc2)nc2c(N[C@H]3CCN(c4ncccn4)C3)ncnc21` [Compound 4-2, 9-ethyl-8-(2-methylpyrimidin-5-yl)-N-[(3S)-1-pyrimidin-2-ylpyrrolidin-3-yl]-9H-purin-6-amine]: the “Selectivity versus PI3Kalpha” value at PI3K-alpha was greater than 10. Also, the IC50 at PI3K-delta was found to be 6.9 nM.

As for `CCn1c(-c2cnc(C)nc2)nc2c(N[C@H]3CC[C@@H](C(=O)OC)C3)ncnc21` [Compound 5-3, methyl (1R,3S)-3-{[9-ethyl-8-(2-methylpyrimidin-5-yl)-9H-purin-6-yl]amino}cyclopentanecarboxyl-ate], at PI3K-alpha, the “Selectivity versus PI3Kalpha” value is greater than 10. Besides, the IC50 on PI3K-delta came out at 32 nM.

Regarding `CCn1c(-c2cnc(C)nc2)nc2c(N[C@H]3CCN(C(=O)[C@H]4C[C@H]4C)C3)ncnc21` [Compound 2-91, 9-ethyl-N-[(3S)-1-{[(1S,2R)-2-methylcyclopropyl]carbonyl}pyrrolidin-3-yl]-8-(2-methylpyrimidin-5-yl)-9H-purin-6-amine], the “Selectivity versus PI3Kalpha” value on PI3K-alpha is given as greater than 10. Further, the IC50 at PI3K-delta is 12 nM.

`CCn1c(-c2cnc(OC)c(C)c2)nc2c(N(C)[C@H]3CCN(C(=O)OC(C)(C)C)C3)ncnc21` [Compound 1-4, (S)-tert-butyl 3-((9-ethyl-8-(6-methoxy-5-methylpyridin-3-yl)-9H-purin-6-yl)(methyl)amino)pyrrolidine-1-carboxylate]: the “Selectivity versus PI3Kalpha” value at PI3K-alpha was greater than 10. Further, on PI3K-delta, the IC50 turned out to be 1.7 nM.

On to `CCn1c(CCCO)nc2c(N[C@H]3CCN(C(=O)C4CC4)C3)ncnc21` [Compound 7-6, 3-(6-{[(3S)-1-(cyclopropylcarbonyl)pyrrolidin-3-yl]amino}-9-ethyl-9H-purin-8-yl)propan-1-ol], for which the “Selectivity versus PI3Kalpha” value on PI3K-alpha is listed as greater than 10. Further, the IC50 on PI3K-delta was 110 nM.

In the case of `CCn1c(-c2cnc(C)nc2)nc2c(N[C@H]3CCN(C(=O)C4CC4)C3)ncnc21` [Compound 2-21, (S)-cyclopropyl(3-((9-ethyl-8-(2-methylpyrimidin-5-yl)-9H-purin-6-yl)amino)pyrrolidin-1-yl)methanone], at PI3K-alpha, the “Selectivity versus PI3Kalpha” value is on record as greater than 10. On PI3K-delta, the IC50 is less than 1 nM.

Turning to `CCn1c(-c2cnc(C)nc2)nc2c(N[C@H]3CC[C@H](C(=O)N4CCC4)C3)ncnc21` [Compound 5-2, N-[(1S,3S)-3-(azetidin-1-ylcarbonyl)cyclopentyl]-9-ethyl-8-(2-methylpyrimidin-5-yl)-9H-purin-6-amine], the “Selectivity versus PI3Kalpha” value on PI3K-alpha is given as greater than 10. The IC50 on PI3K-delta stood at 35 nM.

Take `CCn1c(-c2cncc(Cl)c2)nc2c(N[C@H]3CCN(C(=O)C4CC4)C3)ncnc21` [Compound 3-38, 8-(5-chloropyridin-3-yl)-N-[(3S)-1-(cyclopropylcarbonyl)pyrrolidin-3-yl]-9-ethyl-9H-purin-6-amine]: at PI3K-alpha, the “Selectivity versus PI3Kalpha” value is listed as greater than 10. The IC50 at PI3K-delta was determined as 1.8 nM.

As for `CCn1c(-c2cnc(OC)c(F)c2)nc2c(N[C@H]3CCN(C(=O)C4CC(F)(F)C4)C3)ncnc21` [Compound 3A-7, N-{(3S)-1-[(3,3-difluorocyclobutyl)carbonyl]pyrrolidin-3-yl}-9-ethyl-8-(5-fluoro-6-methoxypyridin-3-yl)-9H-purin-6-amine], on PI3K-alpha, the “Selectivity versus PI3Kalpha” value is greater than 10. The IC50 on PI3K-delta is less than 1 nM.

With `CCn1c(-c2cnc(C)nc2)nc2c(N[C@H]3CCN(C(=O)N4CC[C@@H](F)C4)C3)ncnc21` [Compound 12-12, 9-ethyl-N-[(3S)-1-{[(3R)-3-fluoropyrrolidin-1-yl]carbonyl}pyrrolidin-3-yl]-8-(2-methylpyrimidin-5-yl)-9H-purin-6-amine], the “Selectivity versus PI3Kalpha” value on PI3K-alpha was greater than 10. Further, the IC50 on PI3K-delta worked out at 2.9 nM.

As for `CCn1c(-c2cnc(C)nc2)nc2c(NC3CN(C(=O)C4CC4)CC34CC4)ncnc21` (racemic) [Compound 3-17, (R and S)-N-[5-(cyclopropylcarbonyl)-5-azaspiro[2.4]hept-7-yl]-9-ethyl-8-(2-methylpyrimidin-5-yl)-9H-purin-6-amine], the “Selectivity versus PI3Kalpha” value on PI3K-alpha is greater than 10. At PI3K-delta, the IC50 was less than 1 nM.

As to `CCn1c(-n2cnc3c2CCCC3)nc2c(N[C@H]3CCN(C(=O)C4CC4)C3)ncnc21` [Compound 8-8, N-[(3S)-1-(cyclopropylcarbonyl)pyrrolidin-3-yl]-9-ethyl-8-(4,5,6,7-tetrahydro-1H-benzimidazol-1-yl)-9H-purin-6-amine], the “Selectivity versus PI3Kalpha” value at PI3K-alpha is given as greater than 10. At PI3K-delta, the IC50 was less than 1 nM.

As for `CCn1c(-c2cnc(C)nc2)nc2c(N[C@H]3CCN(C(=O)OCCOC)C3)ncnc21` [Compound 13-7, 2-methoxyethyl (3S)-3-{[9-ethyl-8-(2-methylpyrimidin-5-yl)-9H-purin-6-yl]amino}pyrrolidine-1-carboxylate], on PI3K-alpha, the “Selectivity versus PI3Kalpha” value was greater than 10. The IC50 at PI3K-delta was 4.1 nM.
